Experimental data taken from paper PMC2761036 (Analytical biochemistry, 2009).

Tests used:
Format in all cases: biochemical
[1] = biological target: T1, Sfp (Bacillus subtilis, UniProt P39135); experiment: FRET phosphopantetheinyl transferase assay with purified enzyme
[2] = biological target: T2, AcpS (Escherichia coli, UniProt P24224); experiment: as above
[3] = biological target: T1, Sfp; experiment: HPLC enzyme kinetics
[4] = biological target: T2, AcpS; experiment: HPLC enzyme kinetics

T2 sequence (P24224 2-126): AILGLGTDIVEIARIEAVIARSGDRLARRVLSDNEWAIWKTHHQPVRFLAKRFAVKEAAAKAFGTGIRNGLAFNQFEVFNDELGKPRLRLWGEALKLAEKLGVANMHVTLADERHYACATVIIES
T1 sequence (P39135 whole entry): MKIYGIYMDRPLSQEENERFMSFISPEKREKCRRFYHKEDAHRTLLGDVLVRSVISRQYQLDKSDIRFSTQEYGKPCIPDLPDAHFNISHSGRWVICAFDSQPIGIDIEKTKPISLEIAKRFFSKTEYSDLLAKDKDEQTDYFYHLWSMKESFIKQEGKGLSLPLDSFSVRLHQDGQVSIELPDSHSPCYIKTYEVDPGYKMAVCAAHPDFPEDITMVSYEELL

Nc1ncnc2c1ncn2[C@@H]1O[C@H](COP(=O)(O)O)[C@@H](OP(=O)(O)O)[C@H]1O [compound 3, 3’-phosphoadenosine-5’-phosphate]
IC50 [1]: 12.3 ± 1.1 µM
IC50 [2]: 92 ± 6 µM

TAMRA-mCoA [compound 12]
Km [3]: 6 µM
Km [4]: 22 µM
